This passage reports GI50 and TGI results from PubChem BioAssay (NCI).

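All cell lines were grown in 96-well plates and treated with compound for 48 hours. GI50: concentration for 50% inhibition of growth. TGI is the concentration that stops growth completely.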

Among the test systems are IGROV1 ovarian; SW-620 colon; HS 578T breast; MDA-MB-435; SK-MEL-5 melanoma; HCT-15 colon; HT29 colon; COLO 205 colon; CAKI-1 renal; OVCAR-4 ovarian.
What all share (assay): NCI anticancer screen, dose series, 48 h

For `O=C(/C=C/c1ccccc1O)c1ccccc1`, the GI50 was 1.56 µM in the assay with IGROV1 ovarian; 1.8 µM with SW-620 colon; 5.67 µM in the assay with HS 578T breast; 6.02 µM with MDA-MB-435; 11.5 µM with SK-MEL-5 melanoma; 10.6 µM in the assay on HCT-15 colon. For the same compound, the GI50 with HT29 colon was 3.55 µM; in the assay on COLO 205 colon, 17.3 µM; with CAKI-1 renal, 4.26 µM. Besides, the TGI was found to be 4.12 µM with IGROV1 ovarian; 3.72 µM in the assay on SW-620 colon; 30.4 µM in the assay with HS 578T breast; 21.1 µM in the assay on MDA-MB-435; 23.9 µM with SK-MEL-5 melanoma; 24.7 µM in the assay with HCT-15 colon. Further, the TGI in the assay on HT29 colon came to 15.4 µM; in the assay on COLO 205 colon it was 38 µM; in the assay with CAKI-1 renal it was 20.8 µM.

For the compound `CCCCCCCCCCCCCCCCc1c(C(=O)OC)[nH]c(=S)[nH]c1=O`, the TGI in the assay on IGROV1 ovarian, with SW-620 colon, in the assay on SK-MEL-5 melanoma, in the assay with HCT-15 colon, in the assay with HT29 colon and in the assay on OVCAR-4 ovarian was over 50 µM in each case. For the same compound, the TGI with COLO 205 colon and in the assay on CAKI-1 renal was over 50 µM in each case.

As to `CCCCCCCCC(=O)CCCCCCCCC(=O)O`, the TGI was 36.4 µM in the assay with IGROV1 ovarian; over 100 µM in the assay with SW-620 colon; 29.1 µM with SK-MEL-5 melanoma; 49.7 µM in the assay with HT29 colon; over 100 µM in the assay on OVCAR-4 ovarian; 59.8 µM with COLO 205 colon. In the assay with CAKI-1 renal, this compound had a TGI of over 100 µM.

Consider `CC1=C(C)C(=O)c2c(cc3c4ccccc4ccn23)C1=O`, for which the TGI in the assay with IGROV1 ovarian, in the assay on SW-620 colon, in the assay with SK-MEL-5 melanoma, in the assay on HCT-15 colon, in the assay with HT29 colon and in the assay on COLO 205 colon was over 100 µM throughout.

As to `O=[N+]([O-])c1ccc(Oc2cccnc2)c([N+](=O)[O-])c1`, the GI50 with IGROV1 ovarian was 3.95 µM; with SW-620 colon, 3.27 µM; with HS 578T breast, 46 µM; with SK-MEL-5 melanoma it was 3.04 µM; in the assay with HCT-15 colon it was 3.75 µM; in the assay on HT29 colon, 3.5 µM. The GI50 is 6.4 µM in the assay on OVCAR-4 ovarian, 2.35 µM in the assay with COLO 205 colon and 2.26 µM in the assay with CAKI-1 renal. Further, the TGI in the assay on IGROV1 ovarian was over 100 µM; in the assay on SW-620 colon it was 12.5 µM; in the assay with HS 578T breast it was over 100 µM; in the assay with SK-MEL-5 melanoma it was 11.6 µM; with HCT-15 colon it was over 100 µM; in the assay on HT29 colon, 13.8 µM. The TGI in the assay with OVCAR-4 ovarian was over 100 µM; with COLO 205 colon, 4.39 µM; with CAKI-1 renal, 22.9 µM.

Regarding `CC(=O)c1cc2c3c(c1)c1cc4c(cc1c(=O)n3CC2)OCO4`, the TGI in the assay on IGROV1 ovarian, in the assay with SW-620 colon, in the assay with SK-MEL-5 melanoma, in the assay on HCT-15 colon, with HT29 colon and in the assay with OVCAR-4 ovarian was over 100 µM each time. Also, the values for the TGI with COLO 205 colon and in the assay on CAKI-1 renal were over 100 µM and 91.3 µM, respectively.

On to `CCOC(=O)CC(=O)N(c1ccc(OC)cc1)C(C(=O)OC)c1ccccc1` (stereo not given), for which the TGI in the assay with IGROV1 ovarian, in the assay on SW-620 colon, in the assay with HS 578T breast, with MDA-MB-435, with SK-MEL-5 melanoma and with HCT-15 colon was over 100 µM throughout. The TGI in the assay with HT29 colon, in the assay with COLO 205 colon and in the assay on CAKI-1 renal was over 100 µM throughout.

For the compound `COc1ccc(C2Cc3cc(OC)c(OC)c(OC)c3C2=O)cc1` (stereo not given), the TGI in the assay on IGROV1 ovarian, in the assay on SW-620 colon, in the assay with SK-MEL-5 melanoma, in the assay on HCT-15 colon, in the assay on HT29 colon and in the assay on OVCAR-4 ovarian was over 100 µM each time. Further, the TGI in the assay on COLO 205 colon and with CAKI-1 renal was over 100 µM throughout.

Take `COC(=O)C1C2CC3C(OC(=O)C31)C2I` (stereo not given): the TGI in the assay on IGROV1 ovarian, in the assay on SW-620 colon, in the assay with SK-MEL-5 melanoma, in the assay with HCT-15 colon, in the assay on HT29 colon and in the assay on OVCAR-4 ovarian was over 100 µM throughout. Also, the TGI with COLO 205 colon and with CAKI-1 renal was over 100 µM each time.

For the compound `C=CCOC1=C2CC[C@H](O)[C@@]2(C)CCC1=O`, the TGI in the assay with IGROV1 ovarian, with SW-620 colon, in the assay on SK-MEL-5 melanoma, in the assay with HCT-15 colon, in the assay on HT29 colon and with OVCAR-4 ovarian was over 100 µM throughout. Besides, the TGI with COLO 205 colon and with CAKI-1 renal was over 100 µM throughout.

Consider `CCC1(O)C(=O)OCc2c1cc1n(c2=O)Cc2c-1nc1ccccc1c2OC` (stereo not given), for which the TGI in the assay with IGROV1 ovarian was 5.65 µM; in the assay with SW-620 colon, 29 µM; in the assay on SK-MEL-5 melanoma, 0.205 µM; in the assay on HCT-15 colon it was 23.7 µM; in the assay with HT29 colon, over 87.1 µM; in the assay on OVCAR-4 ovarian it was 2.55 µM. Also, the TGI was found to be 13.9 µM in the assay with COLO 205 colon and 1.8 µM in the assay with CAKI-1 renal.

In the case of `CCOC(=O)/C(=C/c1cc(OC)ccc1OC)CC(=O)O`, the TGI in the assay on IGROV1 ovarian is over 100 µM; in the assay on SW-620 colon, over 100 µM; in the assay on SK-MEL-5 melanoma, over 100 µM; in the assay on HCT-15 colon, over 62.7 µM; with HT29 colon it was over 100 µM; with OVCAR-4 ovarian, over 100 µM. Moreover, the TGI in the assay on COLO 205 colon and in the assay on CAKI-1 renal was over 100 µM throughout.

As for `CC(=O)NC(ON1C(=O)COc2ccccc21)C(Cl)(Cl)Cl` (stereo not given), the TGI in the assay with IGROV1 ovarian, in the assay with SW-620 colon, in the assay with HCT-15 colon, in the assay on HT29 colon, with OVCAR-4 ovarian and in the assay on COLO 205 colon was over 100 µM each time. In the assay on CAKI-1 renal, this compound showed a TGI of over 100 µM.

On to `NC1=NN(c2ccccc2)C(=O)C1C(=O)C(=O)NC1C2CC3CC(C2)CC1C3` (stereo not given), for which the TGI with IGROV1 ovarian, with SW-620 colon, in the assay with SK-MEL-5 melanoma, in the assay on HCT-15 colon, in the assay on HT29 colon and with OVCAR-4 ovarian was over 100 µM in each case. In the assay on COLO 205 colon, this compound showed a TGI of over 100 µM.

Take `Cc1ccc(NC(=O)C2C(=O)C(=O)N(c3ccc(C)cc3)C2=O)cc1` (stereo not given): the TGI in the assay on IGROV1 ovarian, with SW-620 colon, with SK-MEL-5 melanoma, in the assay with HCT-15 colon, with HT29 colon and with OVCAR-4 ovarian was over 100 µM throughout. The compound further had a TGI in the assay on COLO 205 colon of over 100 µM.
